In the NIST ThermoML archive (doi:10.1021/je800635g):
± gives the expanded uncertainty stated by the source.

Details: Liquid, Falling or rolling sphere viscometry

CC(=O)O [acetic acid]
viscosity [mPa·s]
Details	313.15 K	333.15 K	353.15 K	373.15 K	393.15 K	413.15 K	433.15 K	453.15 K	473.15 K
100 kPa	0.903 ± 0.01	0.713 ± 0.008	0.574 ± 0.006	0.471 ± 0.005	–	–	–	–	–
800 kPa	0.91 ± 0.01	0.72 ± 0.008	0.582 ± 0.006	0.478 ± 0.005	0.394 ± 0.004	0.333 ± 0.004	0.281 ± 0.003	0.244 ± 0.003	–
1600 kPa	0.917 ± 0.01	0.727 ± 0.008	0.59 ± 0.006	0.486 ± 0.005	0.402 ± 0.004	0.34 ± 0.004	0.287 ± 0.003	0.251 ± 0.003	0.213 ± 0.002
2400 kPa	0.924 ± 0.01	0.735 ± 0.008	0.598 ± 0.006	0.494 ± 0.005	0.41 ± 0.004	0.347 ± 0.004	0.294 ± 0.003	0.258 ± 0.003	0.22 ± 0.002
3200 kPa	0.932 ± 0.01	0.743 ± 0.008	0.605 ± 0.006	0.502 ± 0.005	0.418 ± 0.005	0.354 ± 0.004	0.302 ± 0.003	0.264 ± 0.003	0.226 ± 0.003

Cc1ccccc1 [toluene]
Details	viscosity [mPa·s]
313.15 K, 100 kPa	0.4651 ± 0.0049
323.15 K, 100 kPa	0.4158 ± 0.0044
333.15 K, 100 kPa	0.3758 ± 0.0039
333.15 K, 800 kPa	0.3839 ± 0.004
333.15 K, 1600 kPa	0.3889 ± 0.004
333.15 K, 2400 kPa	0.3955 ± 0.0041
333.15 K, 3200 kPa	0.4008 ± 0.0042
343.15 K, 100 kPa	0.3428 ± 0.0036
353.15 K, 100 kPa	0.3137 ± 0.0033
363.15 K, 100 kPa	0.2901 ± 0.003
373.15 K, 100 kPa	0.268 ± 0.0028
373.15 K, 800 kPa	0.2706 ± 0.0029
373.15 K, 1600 kPa	0.2742 ± 0.0029
373.15 K, 2400 kPa	0.278 ± 0.0029
373.15 K, 3200 kPa	0.2822 ± 0.003
393.15 K, 1600 kPa	0.2397 ± 0.0025
413.15 K, 1600 kPa	0.2058 ± 0.0022
433.15 K, 1600 kPa	0.1769 ± 0.0019
453.15 K, 1600 kPa	0.1517 ± 0.0016
473.15 K, 1600 kPa	0.1353 ± 0.0015
